Eleven compounds from patent USRE39420E1, “1,2-Diphenylpyrrole derivatives, their preparation and their therapeutic uses” (Sankyo Company, Limited, priority 1996, dated 2006) can be followed below.

Series [1] addresses T1, Cyclooxygenase-1 from Ram Seminal Vesicle Microsomes (RSVM) (Ovis aries, UniProt P05979).
T1 construct: ram seminal vesicles were homogenised by a blender; from tissue; host or cells: ram seminal vesicles (microsomes)
T1 sequence (P05979 25-600): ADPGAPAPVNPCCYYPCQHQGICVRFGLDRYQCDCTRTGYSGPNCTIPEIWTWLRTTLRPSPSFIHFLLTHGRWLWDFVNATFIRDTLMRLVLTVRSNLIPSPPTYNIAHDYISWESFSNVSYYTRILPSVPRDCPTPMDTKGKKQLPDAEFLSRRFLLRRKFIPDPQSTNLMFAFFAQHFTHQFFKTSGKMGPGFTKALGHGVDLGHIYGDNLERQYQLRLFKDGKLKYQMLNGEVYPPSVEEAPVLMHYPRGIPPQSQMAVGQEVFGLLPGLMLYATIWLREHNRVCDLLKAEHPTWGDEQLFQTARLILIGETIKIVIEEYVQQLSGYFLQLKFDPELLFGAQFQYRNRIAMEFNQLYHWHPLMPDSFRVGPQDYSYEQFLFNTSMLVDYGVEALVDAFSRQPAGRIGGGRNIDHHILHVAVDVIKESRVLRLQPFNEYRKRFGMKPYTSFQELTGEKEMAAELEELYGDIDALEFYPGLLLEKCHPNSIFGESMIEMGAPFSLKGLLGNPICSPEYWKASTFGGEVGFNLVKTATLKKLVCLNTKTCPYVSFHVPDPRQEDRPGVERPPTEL
Kind of series: Inhibitory activity on cyclooxygenase-1 from ram seminal vesicle microsomes (PGE2 ELISA). The settings on record: PGE2 formation, read-out: Inhibitory Effect on COX-1[IC50(μM)]. It is filed as biochemical. As to the method: (§1) In order to prepare cyclooxygenase-1 (COX-1) microsomes, ram seminal vesicles were homogenised by a blender. To prepare cyclooxygenase-2 (COX-2) microsomes, an expression vector which contains the human COX-2 gene was introduced into COS cells. The cells were homogenised by sonication after 66 hours cultivation. Microsomes were then prepared in accordance with conventional methods. Enzyme activity was assayed as follows. The assay mixture contained 10 μl of COX-1 or COX-2 microsomes (5 to 15 μg), 2 μl of sample dissolved in dimethyl sulfoxide, 50 μl of 200 mM Tris (pH 7.6), 10 μl of 20 mM reduced glutathione, 10 μl of 10 mM epinephrine, and 15.5 μl of distilled water. After preincubation at 37° C. for 15 minutes, 2.5 μl of 10 μM arachidonic acid (dissolved in ethanol) were then added to the mixture (final volume of 100 μl) and allowed to react at 37° C. for 30 minutes. The final dimethyl sulfoxide and ethanol concentrations were 2% and 2.5%, respectively. To the reaction mixture were then added 15 μl of ice-cooled 0.2M HCl to stop the reaction, and the mixture was cooled at 4° C. for 5 minutes. 15 μl of a 0.2M aqueous solution of sodium hydroxide were then added to the reaction mixture to neutralise the pH. The amount of PGE2, in the reaction mixture was measured using a commercially available ELISA kit (Cayman). IC50 was calculated from the regression line determined by the inhibition rates of PGE2 formation and the concentrations of the compound.

For series [2], the target named is T2, Human Recombinant Cyclooxygenase-2 (Homo sapiens, UniProt P35354).
T2 construct: made in house; host or cells: COS cells (transient expression; microsomes prepared after 66 hours)
T2 sequence (P35354 18-604): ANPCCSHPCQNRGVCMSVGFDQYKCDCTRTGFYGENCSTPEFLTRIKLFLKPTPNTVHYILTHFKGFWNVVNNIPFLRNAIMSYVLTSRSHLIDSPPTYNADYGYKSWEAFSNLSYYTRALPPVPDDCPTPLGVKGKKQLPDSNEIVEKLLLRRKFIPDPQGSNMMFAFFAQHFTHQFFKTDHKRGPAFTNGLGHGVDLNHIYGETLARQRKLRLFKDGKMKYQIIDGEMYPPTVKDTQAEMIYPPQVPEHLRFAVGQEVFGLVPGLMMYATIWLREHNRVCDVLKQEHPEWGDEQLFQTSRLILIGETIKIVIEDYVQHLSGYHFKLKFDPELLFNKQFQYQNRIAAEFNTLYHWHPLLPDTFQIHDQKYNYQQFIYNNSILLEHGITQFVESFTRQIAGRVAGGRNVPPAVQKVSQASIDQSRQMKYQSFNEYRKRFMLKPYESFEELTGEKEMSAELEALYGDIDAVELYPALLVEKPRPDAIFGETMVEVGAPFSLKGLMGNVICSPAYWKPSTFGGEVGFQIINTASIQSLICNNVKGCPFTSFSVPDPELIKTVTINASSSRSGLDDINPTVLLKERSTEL
In words: Inhibitory activity on human recombinant cyclooxygenase-2 microsomes from COS cells (PGE2 ELISA). The class given is biochemical. The conditions noted are these: for IC50: human recombinant COX-2 microsomes, PGE2 formation, read-out: Inhibitory Effect on COX-2 [IC50 (μM)]; for Selectivity (COX-1/COX-2): ratio of IC50 COX-1/COX-2. As to the method: In order to prepare cyclooxygenase-1 (COX-1) microsomes, ram seminal vesicles were homogenised by a blender. To prepare cyclooxygenase-2 (COX-2) microsomes, an expression vector which contains the human COX-2 gene was introduced into COS cells. The cells were homogenised by sonication after 66 hours cultivation. Microsomes were then prepared in accordance with conventional methods.
Enzyme activity was assayed as follows.
as §1, with “The” for “In order to prepare cyclooxygenase-1 (COX-1) microsomes, ram seminal vesicles were homogenised by a blender. To prepare cyclooxygenase-2 (COX-2) microsomes, an expression vector which contains the human COX-2 gene was introduced into COS cells. The cells were homogenised by sonication after 66 hours cultivation. Microsomes were then prepared in accordance with conventional methods. Enzyme activity was assayed as follows. The”

For series [3], the system named is yeast-inflamed pain in rats. In words: Analgesic effect on yeast-inflamed pain in rats (Randall-Selitto method). The conditions noted are these: Rattus norvegicus, oral, pain threshold 0.5, 1 and 2 hours after administration, read-out: Efficacy Rate (No. of animals in which drug was effective/No. of animals used in test) (converted). The class given is in vivo, Wistar-Imamichi rats. How it is done: The compound was suspended in 0.5%tragacanth and administered orally at a volume of 5 ml/kg. The control group was administered with 0.5% tragacanth only as a vehicle.
Wistar-Imamichi rats (males, 5 week old, body weights: 80-100 g) were used in this test.
The test was conducted in accordance with the method of Winter and Flataker [J. Pharmacol. Exp. Ther. 150, 165-171, (1965)], which is a modification of the original method of Randall and Selitto [Arch. Int. Pharmacodyn. Ther. 111, 405-419, (1957)]. The rats were fasted for 16 hours prior to use. Inflammation was induced by subcutaneous injection of 0.1 ml of a suspension of 20% beer yeast (Sigma) into the right hind footpad of the animal. After 4.5 hours, increasing pressure was applied to the inflamed footpad at a constant speed using an Analgesy meter (Trade mark) (Ugo-Basile Co.).
First the average of pain threshold values at each time point (0.5, 1, and 2 hr) was calculated in a control group. If a pain threshold value exceeded 2 times the control average value at the same time point even once in the drug-treated groups, then the animal was considered to indicate efficacy. Efficacy rates of the drug were estimated by the evaluation method of Blake [J. Pharm. Pharm. 19, 367-373, (1967)].

Series [4] relates to Carrageenan-induced Paw Edema in rats. Kind of series: Carrageenan-induced paw edema test. The class given is in vivo, Wistar-Imamichi rats. The conditions noted are these: Rattus norvegicus, oral, 3 hours after carrageenan, read-out: Inhibition Rate (%). As to the method: The same test compounds were subjected to the test as those in the Randall-Selitto test of Experiment 3. Wistar-Imamichi rats (males, 6 week old, body weights: 110-120 g) were used in this test.
The method of Winter, et al. [Proc. Soc. Exp. Biol. Med. 111, 544-547, (1962)] was slightly modified to perform the test [Sankyo Annual Research Report 39, 77-111, (1989)]. The rats were fasted for 16 hours prior to use. Inflammatory edema was induced by the subcutaneous injection of 0.05 ml of a 1% carrageenan (Viscarin 402) solution into the right hind paw of the animal. The test compounds were administered orally 30 minutes before injection of carrageenan. The volume of the right hind foot was measured with a Plethysmometer (Trade mark) (Ugo-Basile Co.) just before administration of the test compound and 3 hours after injection of carrageenan to determine the edema intensity [(right foot volume after 3 hours/right foot volume before injection)-1].

Series [5] deals with gastric mucosa. Kind of series: Irritative effect on gastric mucosa. The settings on record: oral; dose producing 50% incidence of gastric ulcers, 3.5 hours after dosing. The class given is in vivo, Wistar rats. How it is done: Experiments were performed according to the method described by Jahn and Adrian [Arzneim.-Forsch. 19, 36, (1969)]. Male Wistar rats weighing approximately 120 g were fasted for 16 hours before the experiment. The drugs were administered orally to rats as described in Experiment 3. Three and the half hours after dosing, the animals were killed under ether-anesthesia and the stomachs were placed into 1% of formalin. The stomach was opened by cutting along the greater curvature and the number and length of lesions were counted under a microscope (6.3×10). The ulcerogenicity in each animal was assessed according to Hitchens et. al. [Pharmacologist 9, 242, (1967)]. Incidence was determined as the rate of rats with 4 or more ulcers of more than 0.5 mm length, and UD50's (doses producing 50% incidence) were calculated from the incidence and the dose by probit (=probability unit) method.

Consider `Cc1cc(-c2ccc(S(N)(=O)=O)cc2)n(-c2ccc(F)cc2)c1` [Example 20, 1-(4-Fluorophenyl)-4-methyl-2-(4-sulfamoylphenyl) pyrrole], for which, in series [1], the IC50 came out at 85 µM. Moreover, in series [2], the half-inhibitory concentration (IC50) is 0.023 µM and the “Selectivity (COX-1/COX-2)” value is 3696.

`Cc1cc(-c2ccc(S(N)(=O)=O)cc2)n(-c2ccc(F)cc2)c1Cl` [Example 38, 5-Chloro-1-(4-fluorophenyl)-4-methyl-2-(4-sulfamoylphenyl)pyrrole]: the IC50 in series [1] was more than 100 µM. Further, in series [2], the 50% inhibitory concentration (IC50) stood at 0.023 µM and the “Selectivity (COX-1/COX-2)” value is listed as more than 4348.

`Cc1cc(-c2ccc(S(C)(=O)=O)cc2)n(-c2ccc(C)c(C)c2)c1` [Example 56, 4-Methyl-1-(3,4-dimethylphenyl)-2-(4-methylsulfonylphenyl)pyrrole]: the concentration for half-maximal inhibition (IC50) in series [1] was more than 100 µM. Besides, in series [2], the IC50 was 0.018 µM and the “Selectivity (COX-1/COX-2)” value is more than 5556.

Turning to `Cc1ccc(-n2cc(C)cc2-c2ccc(S(N)(=O)=O)cc2)cc1` [Example 58, 4-Methyl-1-(4-methylphenyl)-2-(4-sulfamoylphenyl) pyrrole], in series [1], the concentration for half-maximal inhibition (IC50) stood at 6.3 µM. For the same compound, in series [2], the IC50 amounted to 0.019 µM and the “Selectivity (COX-1/COX-2)” value is recorded as 332.

As to `COc1ccc(-n2cc(C)cc2-c2ccc(S(N)(=O)=O)cc2)cc1` [Example 62, 1-(4-Methoxyphenyl)-4-methyl-2-(4-sulfamoylphenyl)pyrrole], in series [1], the half-inhibitory concentration (IC50) came out at 1.5 µM. Also, in series [2], the IC50 is 0.0097 µM and the “Selectivity (COX-1/COX-2)” value was determined as 153. For the same compound, in series [3], the responders at 12.5 mg/kg was 100%. The inhibition in vivo at 50 mg/kg in series [4] was found to be 55%.

As to `Cc1cc(-c2ccc(Cl)cc2)n(-c2ccc(S(N)(=O)=O)cc2)c1` [Example 65, 2-(4-Chlorophenyl)-4-methyl-1-(4-sulfamoylphenyl) pyrrole], the half-maximal inhibitory concentration (IC50) in series [1] was 13 µM. In series [2], the concentration for half-maximal inhibition (IC50) was determined as 0.015 µM and the “Selectivity (COX-1/COX-2)” value is listed as 867. Besides, the responders at 12.5 mg/kg in series [3] is 100%. In addition, the “UD50” value in series [5] was more than 100 mg/kg.

As for `COc1ccc(-c2c(C)ccn2-c2ccc(S(N)(=O)=O)cc2)cc1` [Example 73, 2-(4-Methoxyphenyl)-3-methyl-1-(4-sulfamoylphenyl)pyrrole], in series [1], the IC50 turned out to be 3 µM. In addition, in series [2], the IC50 was 0.025 µM and the “Selectivity (COX-1/COX-2)” value was found to be 120. The inhibition in vivo at 50 mg/kg in series [4] is 72%.

For the compound `COc1ccc(-c2cc(C)cn2-c2ccc(S(C)(=O)=O)cc2)cc1` [Example 80, 2-(4-Methoxyphenyl)-4-methyl-1-(4-methylsulfonylphenyl)pyrrole], the IC50 in series [1] was determined as 25 µM. Besides, in series [2], the IC50 came to 0.011 µM and the “Selectivity (COX-1/COX-2)” value stood at 2273. Moreover, in series [5], the “UD50” value was more than 100 mg/kg.

Turning to `Cc1cc(-c2ccc(S(N)(=O)=O)cc2)n(-c2ccc(Cl)c(Cl)c2)c1` [Example 103], the IC50 worked out at 3.7 µM in series [1] and 0.01 µM in series [2]. The “Selectivity (COX-1/COX-2)” value in series [2] is on record as 370. The inhibition in vivo at 50 mg/kg in series [4] was 56%. In addition, in series [5], the “UD50” value is given as more than 100 mg/kg.

Consider `Cc1cc(-c2ccc(S(N)(=O)=O)cc2)n(-c2ccc(F)c(Cl)c2)c1` [Example 108], for which the 50% inhibitory concentration (IC50) in series [1] was 6 µM. In series [2], the IC50 was less than 0.01 µM and the “Selectivity (COX-1/COX-2)” value is more than 600. Also, the inhibition in vivo at 50 mg/kg in series [4] was found to be 58%.

On to `Cc1cc(-c2ccc(S(N)(=O)=O)cc2)n(-c2ccc3c(c2)OCO3)c1` [Example 109], for which the IC50 in series [1] stood at 3.8 µM. Further, in series [2], the IC50 was 0.023 µM and the “Selectivity (COX-1/COX-2)” value is recorded as 165. The inhibition in vivo at 50 mg/kg in series [4] stood at 77%.
